Reference: US20230096766A1, “AMINO ACID HAVING FUNCTIONAL GROUP CAPABLE OF INTERMOLECULAR HYDROGEN BONDING, PEPTIDE COMPOUND CONTAINING SAME AND METHOD FOR PRODUCTION THEREOF” (Chugai Seiyaku Kabushiki Kaisha, priority 2018, published 2023)
*1 amine or outer side, *2 acyl side, *3 side chain or, on linkers, in order; H or OH if unused. Where a SMILES comes first, the peptide text is derived from it. Bridges are numbered along the chain shown (N, C = ends). [ ]: non-standard residue; d: D form. The star is where a group is joined. ξ: configuration not given here. Tyr(3-F) = N[C@@H](Cc1ccc(O)c(F)c1)C(=O)O; NMeW = CN[C@@H](Cc1c[nH]c2ccccc12)C(=O)O; NMeF = CN[C@@H](Cc1ccccc1)C(=O)O; NMeGABA = CN(CCCC(=O)[*:2])[*:1]; NMeI = CC[C@H](C)[C@H](NC)C(=O)O; NMeξIle = CC[C@H](C)C(NC)C(=O)O; NMeL = CN[C@@H](CC(C)C)C(=O)O; NMeV = CN[C@H](C(=O)O)C(C)C; NMeA = CN[C@@H](C)C(=O)O; Piperidide = C1CCN(*)CC1; Sar = CNCC(=O)O; tBu = CC(C)(C)*

Assay: in vitro
Conditions: human, Caco-2, Caco-2 (cm/sec)

Compared with `CC[C@H](C)C1C(=O)N[C@@H]([C@@H](C)O)C(=O)N(C)CC(=O)N(C)[C@@H](CC(C)C)C(=O)N[C@H](C(=O)N2CCCCC2)CC(=O)N(C)[C@@H](C)C(=O)N[C@@H](CC(C)C)C(=O)N(C)[C@@H](CC(C)C)C(=O)N(C)[C@@H](Cc2c[nH]c3ccccc23)C(=O)N[C@@H](C(C)C)C(=O)N(C)[C@@H](CC(C)C)C(=O)N1C` (stereo partly drawn) [pd102] ([NMeA]L[NMeL][NMeW]V[NMeL][NMeξIle]T[Sar][NMeL]D-Piperidide; lactam N-11), `CC[C@H](C)[C@H]1C(=O)N[C@@H]([C@@H](C)O)C(=O)N(C)CC(=O)N(C)[C@@H](CC(C)C)C(=O)N[C@H](C(=O)N2CCCCC2)CC(=O)N(C)[C@@H](CC(C)C)C(=O)N[C@@H](CC(C)C)C(=O)N(C)[C@@H](CC(C)C)C(=O)N(C)[C@@H](Cc2c[nH]c3ccccc23)C(=O)N[C@@H](CC(C)C)C(=O)N(C)[C@@H](Cc2ccccc2)C(=O)N1C` [pd111] ([NMeL]L[NMeL][NMeW]L[NMeF][NMeI]T[Sar][NMeL]D-Piperidide; lactam N-11) is 6.9-fold lower in Papp: 1.1 ×10⁻⁶ cm/s for the first, 0.16 ×10⁻⁶ cm/s for the second.

Compared with `CC[C@H](C)[C@@H]1NC(=O)[C@H](CC(C)C)N(C)C(=O)CN(C)C(=O)C[C@@H](C(=O)N2CCCCC2)NC(=O)[C@H](C)N(C)C(=O)[C@H](COC(C)(C)C)NC(=O)[C@H](CC(C)C)N(C)C(=O)[C@H](CC(C)C)N(C)C(=O)CN(C)C(=O)[C@H](Cc2c[nH]c3ccccc23)NC(=O)[C@H](CC(C)C)N(C)C1=O` [pd103] ([Sar][NMeL]I[NMeL]W[Sar][NMeL][NMeL]S(tBu)[NMeA]D-Piperidide; lactam N-11), `CC[C@H](C)[C@@H]1NC(=O)[C@H](CC(C)C)N(C)C(=O)[C@@H](C)NC(=O)C[C@@H](C(=O)N2CCCCC2)NC(=O)[C@H](C(C)C)N(C)C(=O)[C@H](CC(C)C)N(C)C(=O)[C@H](COC(C)(C)C)NC(=O)[C@H](CC(C)C)N(C)C(=O)CN(C)C(=O)[C@H](Cc2c[nH]c3ccccc23)NC(=O)[C@H](CC(C)C)N(C)C1=O` [pd108] ([dA][NMeL]I[NMeL]W[Sar][NMeL]S(tBu)[NMeL][NMeV]D-Piperidide; lactam N-11) is 9.4-fold higher in Papp: 0.093 ×10⁻⁶ cm/s for the first, 0.87 ×10⁻⁶ cm/s for the second.

Compared with `CC(C)C[C@H]1C(=O)N(C)[C@@H](Cc2c[nH]c3ccccc23)C(=O)N(C)[C@@H](Cc2ccccc2)C(=O)N[C@@H]([C@@H](C)O)C(=O)N(C)[C@@H](C)C(=O)N(C)[C@@H](CC(C)C)C(=O)N[C@H](C(=O)N2CCCCC2)CC(=O)N(C)[C@@H](C)C(=O)N(C)[C@@H](CC(C)C)C(=O)N(C)[C@@H](CC(C)C)C(=O)N[C@@H](C)C(=O)N1C` [pd104] ([NMeA][NMeL][NMeL]A[NMeL][NMeW][NMeF]T[NMeA][NMeL]D-Piperidide; lactam N-11), `CC(C)C[C@H]1C(=O)N(C)[C@@H](Cc2c[nH]c3ccccc23)C(=O)N(C)[C@@H](Cc2ccccc2)C(=O)N[C@@H]([C@@H](C)O)C(=O)N(C)[C@@H](C)C(=O)N(C)[C@@H](CC(C)C)C(=O)N[C@H](C(=O)N2CCCCC2)CC(=O)N(C)[C@@H](C)C(=O)N(C)[C@@H](CC(C)C)C(=O)N(C)[C@@H](CC(C)C)C(=O)N[C@@H](C(C)C)C(=O)N1C` [pd109] ([NMeA][NMeL][NMeL]V[NMeL][NMeW][NMeF]T[NMeA][NMeL]D-Piperidide; lactam N-11) is 2.7-fold lower in Papp: 0.025 ×10⁻⁶ cm/s for the first, 0.0092 ×10⁻⁶ cm/s for the second.

`CC(C)C[C@H]1C(=O)N(C)[C@@H](CC(C)C)C(=O)N(C)[C@@H](Cc2c[nH]c3ccccc23)C(=O)N[C@@H]([C@@H](C)O)C(=O)N(C)[C@@H](C)C(=O)N(C)[C@@H](CC(C)C)C(=O)N[C@H](C(=O)N2CCCCC2)CC(=O)N(C)[C@@H](C)C(=O)N(C)[C@@H](CC(C)C)C(=O)N(C)[C@@H](CC(C)C)C(=O)N[C@@H](C)C(=O)N1C` [pd105] ([NMeA][NMeL][NMeL]A[NMeL][NMeL][NMeW]T[NMeA][NMeL]D-Piperidide; lactam N-11) and `CC[C@H](C)[C@@H]1NC(=O)[C@H](CC(C)C)N(C)C(=O)CCCN(C)C(=O)C[C@@H](C(=O)N2CCCCC2)NC(=O)[C@H](CC(C)C)N(C)C(=O)[C@H](C)N(C)C(=O)[C@H](Cc2c[nH]c3ccccc23)NC(=O)[C@H](CC(C)C)N(C)C(=O)[C@H](COC(C)(C)C)NC(=O)[C@H](CC(C)C)N(C)C(=O)[C@H](CC(C)C)N(C)C1=O` [pd110] ([NMeGABA][NMeL]I[NMeL][NMeL]S(tBu)[NMeL]W[NMeA][NMeL]D-Piperidide; lactam N-11) are within 1.5-fold of each other in Papp: 0.28 ×10⁻⁶ cm/s for the first, 0.29 ×10⁻⁶ cm/s for the second.

Going from `CC(C)C[C@@H]1NC(=O)[C@H](Cc2c[nH]c3ccccc23)N(C)C(=O)[C@@H](C(C)C)NC(=O)C[C@@H](C(=O)N2CCCCC2)NC(=O)[C@H](CC(C)C)N(C)C(=O)[C@H](CC(C)C)N(C)C(=O)[C@H](COC(C)(C)C)NC(=O)[C@H](CC(C)C)N(C)C(=O)CN(C)C(=O)[C@H]([C@@H](C)O)NC(=O)[C@H](CC(C)C)N(C)C1=O` [pd106] ([dV][NMeW]L[NMeL]T[Sar][NMeL]S(tBu)[NMeL][NMeL]D-Piperidide; lactam N-11) to `CC(C)C[C@H]1NC(=O)C[C@@H](C(=O)N2CCCCC2)NC(=O)[C@H](C)N(C)C(=O)[C@H](CC(C)C)N(C)C(=O)[C@H](COC(C)(C)C)NC(=O)[C@H](CC(C)C)N(C)C(=O)CN(C)C(=O)[C@H]([C@@H](C)O)NC(=O)[C@H](CC(C)C)N(C)C(=O)[C@H](Cc2ccc(O)c(F)c2)NC(=O)[C@H](Cc2ccccc2)N(C)C1=O` [pd118] ([dL][NMeF][Tyr(3-F)][NMeL]T[Sar][NMeL]S(tBu)[NMeL][NMeA]D-Piperidide; lactam N-11), the Papp falls from 0.36 ×10⁻⁶ cm/s to 0.2 ×10⁻⁶ cm/s (1.8-fold).

`CC[C@H](C)[C@@H]1NC(=O)[C@H](CC(C)C)N(C)C(=O)CCCN(C)C(=O)C[C@@H](C(=O)N2CCCCC2)NC(=O)[C@H](CC(C)C)N(C)C(=O)[C@H](CC(C)C)N(C)C(=O)[C@H]([C@@H](C)O)NC(=O)[C@H](CC(C)C)N(C)C(=O)[C@H](COC(C)(C)C)NC(=O)[C@H](Cc2c[nH]c3ccccc23)N(C)C(=O)[C@H](Cc2ccccc2)N(C)C1=O` [pd107] ([NMeGABA][NMeL]I[NMeF][NMeW]S(tBu)[NMeL]T[NMeL][NMeL]D-Piperidide; lactam N-11) and `CC[C@H](C)[C@@H]1NC(=O)[C@H](CC(C)C)N(C)C(=O)CCCN(C)C(=O)C[C@@H](C(=O)N2CCCCC2)NC(=O)[C@H](CC(C)C)N(C)C(=O)[C@H](C)N(C)C(=O)[C@H]([C@@H](C)O)NC(=O)[C@H](CC(C)C)N(C)C(=O)[C@H](Cc2ccc(O)c(F)c2)NC(=O)[C@H](CC(C)C)N(C)C(=O)[C@H](Cc2ccccc2)N(C)C1=O` [pd119] ([NMeGABA][NMeL]I[NMeF][NMeL][Tyr(3-F)][NMeL]T[NMeA][NMeL]D-Piperidide; lactam N-11) are within 1.5-fold of each other in Papp: 0.17 ×10⁻⁶ cm/s for the first, 0.16 ×10⁻⁶ cm/s for the second.

Compared with `CC[C@H](C)[C@@H]1NC(=O)[C@H](Cc2ccccc2)N(C)C(=O)[C@@H](C)NC(=O)C[C@@H](C(=O)N2CCCCC2)NC(=O)[C@H](CC(C)C)N(C)C(=O)[C@H](C)N(C)C(=O)[C@H](COC(C)(C)C)NC(=O)[C@H](C)N(C)C(=O)CN(C)C(=O)[C@H](Cc2ccc(O)cc2)NC(=O)[C@H](CC(C)C)N(C)C1=O` [pd112] ([dA][NMeF]I[NMeL]Y[Sar][NMeA]S(tBu)[NMeA][NMeL]D-Piperidide; lactam N-11), `CC[C@H](C)[C@@H]1NC(=O)[C@H](CC(C)C)N(C)C(=O)[C@@H](C)NC(=O)C[C@@H](C(=O)N2CCCCC2)NC(=O)[C@H](C(C)C)N(C)C(=O)[C@H](Cc2ccccc2)N(C)C(=O)[C@H](COC(C)(C)C)NC(=O)[C@H](CC(C)C)N(C)C(=O)CN(C)C(=O)[C@H](Cc2ccc(O)cc2)NC(=O)[C@H](C)N(C)C1=O` [pd117] ([dA][NMeL]I[NMeA]Y[Sar][NMeL]S(tBu)[NMeF][NMeV]D-Piperidide; lactam N-11) is 5.1-fold higher in Papp: 0.11 ×10⁻⁶ cm/s for the first, 0.56 ×10⁻⁶ cm/s for the second.

Compared with `CC(C)C[C@@H]1NC(=O)[C@H](CC(C)C)N(C)C(=O)[C@H](C)N(C)C(=O)[C@@H](C(C)C)NC(=O)C[C@@H](C(=O)N2CCCCC2)NC(=O)[C@H]([C@@H](C)O)NC(=O)[C@H](C)N(C)C(=O)[C@H](C)N(C)C(=O)[C@H](CC(C)C)N(C)C(=O)[C@H](Cc2ccc(O)c(F)c2)NC(=O)[C@H](Cc2ccccc2)N(C)C1=O` [pd113] ([dV][NMeA][NMeL]L[NMeF][Tyr(3-F)][NMeL][NMeA][NMeA]TD-Piperidide; lactam N-11), `CC(C)C[C@@H]1NC(=O)[C@H](C)N(C)C(=O)C[C@@H](C(=O)N2CCCCC2)NC(=O)[C@H](CC(C)C)N(C)C(=O)CN(C)C(=O)[C@H](Cc2ccc(O)c(F)c2)NC(=O)[C@H](CC(C)C)N(C)C(=O)[C@H](C)N(C)C(=O)[C@H](C)NC(=O)[C@H](Cc2ccccc2)N(C)C(=O)[C@H](CC(C)C)N(C)C1=O` [pd120] ([NMeA]L[NMeL][NMeF]A[NMeA][NMeL][Tyr(3-F)][Sar][NMeL]D-Piperidide; lactam N-11) is 7.9-fold higher in Papp: 0.029 ×10⁻⁶ cm/s for the first, 0.23 ×10⁻⁶ cm/s for the second.

`CC(C)C[C@H]1C(=O)N[C@H](C(=O)N2CCCCC2)CC(=O)N(C)CCCC(=O)N(C)[C@@H](CC(C)C)C(=O)N[C@@H](Cc2ccc(O)c(F)c2)C(=O)N(C)[C@@H](CC(C)C)C(=O)N(C)[C@@H](Cc2ccccc2)C(=O)N[C@@H](COC(C)(C)C)C(=O)N(C)[C@@H](CC(C)C)C(=O)N[C@@H]([C@@H](C)O)C(=O)N(C)CC(=O)N1C` [pd114] ([NMeGABA][NMeL][Tyr(3-F)][NMeL][NMeF]S(tBu)[NMeL]T[Sar][NMeL]D-Piperidide; lactam N-11) and `CC(C)C[C@H]1C(=O)N[C@@H](Cc2ccc(O)cc2)C(=O)N(C)CC(=O)N(C)[C@@H](C)C(=O)N(C)[C@@H](CC(C)C)C(=O)N[C@@H](COC(C)(C)C)C(=O)N(C)[C@@H](C(C)C)C(=O)N[C@H](C(=O)N2CCCCC2)CC(=O)N(C)CC(=O)N(C)[C@@H](Cc2ccccc2)C(=O)N[C@@H](C(C)C)C(=O)N1C` [pd115] ([Sar][NMeF]V[NMeL]Y[Sar][NMeA][NMeL]S(tBu)[NMeV]D-Piperidide; lactam N-11) are within 1.5-fold of each other in Papp: 0.17 ×10⁻⁶ cm/s for the first, 0.22 ×10⁻⁶ cm/s for the second.

`CC[C@H](C)[C@H]1C(=O)N[C@@H](Cc2ccc(O)cc2)C(=O)N(C)CC(=O)N(C)[C@@H](CC(C)C)C(=O)N[C@H](C(=O)N2CCCCC2)CC(=O)N(C)[C@@H](C)C(=O)N[C@@H](CC(C)C)C(=O)N(C)[C@@H](C)C(=O)N(C)[C@@H](Cc2ccccc2)C(=O)N[C@@H](C(C)C)C(=O)N(C)[C@@H](C)C(=O)N1C` [pd116] ([NMeA]L[NMeA][NMeF]V[NMeA][NMeI]Y[Sar][NMeL]D-Piperidide; lactam N-11) gave a Papp of 0.14 ×10⁻⁶ cm/s.
